In BindingDB's records for doi:10.1016/j.bmcl.2009.11.060 (Glaxosmithkline, 2010):

test: Inhibition of GSK3-beta phosphorylation in human BT474 cells

Row | Structure (SMILES) | IC50 [nM]
1 | Cc1n[nH]c2ncc(-c3cc(OC[C@@H](N)Cc4c[nH]c5ccccc45)cnc3-c3ccoc3)cc12 [(S)-1-(6-(furan-3-yl)-5-(3-methyl-1H-pyrazolo[3,4-b]pyridin-5-yl)pyridin-3-yloxy)-3-(1H-indol-3-yl)propan-2-amine] | 260
2 | Cc1n[nH]c2cnc(-c3cc(OC[C@@H](N)Cc4c[nH]c5ccccc45)cnc3-c3ccoc3)cc12 [(S)-1-(6-(furan-3-yl)-5-(3-methyl-1H-pyrazolo[3,4-c]pyridin-5-yl)pyridin-3-yloxy)-3-(1H-indol-3-yl)propan-2-amine] | 64
3 | Cc1n[nH]c2ncc(-c3cc(OC[C@@H](N)Cc4c[nH]c5ccccc45)cnc3-c3ccoc3)nc12 [(S)-1-(6-(furan-3-yl)-5-(3-methyl-1H-pyrazolo[4,3-b]pyrazin-5-yl)pyridin-3-yloxy)-3-(1H-indol-3-yl)propan-2-amine] | 160
4 | Cc1n[nH]c2ccc(-c3cc(OC[C@@H](N)Cc4c[nH]c5ccccc45)cnc3-c3ccoc3)nc12 [(S)-1-(6-(furan-3-yl)-5-(3-methyl-1H-pyrazolo[4,3-b]pyridin-5-yl)pyridin-3-yloxy)-3-(1H-indol-3-yl)propan-2-amine] | 3860
